The values that follow come from patent US8383786B2, “Pesticidal compositions” (Dow AgroSciences, LLC., priority 2009, dated 2013).

A value given as a limit tells only on which side of the number the result lay.

The test system of data set [1] is beet armyworm (BAW; Spodoptera exigua: Lepidoptera). The data set can be described thus: 128-well diet tray assay on beet armyworm (BAW 50). It counts as in vivo. Particulars: 144 h, 50 ug/cm^2 of test compound on diet, second instar BAW larvae, 25° C., six days, average of eight wells, read-out: BAW 50 (percent mortality). As for the experimental part: (§1) Bioassays on beet armyworm (BAW; Spodoptera exigua: Lepidoptera) were conducted using either a 96-well microtiter plate-based high throughput (HTS) bioassay or a 128-well diet tray assay. The HTS assay is a based on a modification of Lewer et al. J. Nat. Prod. 2006, 69, 1506. BAW eggs were placed on top of artificial diet (100 microliters (μL)) in each well of 96-well microtiter plate. The diet was pretreated with test compounds (12 micrograms (μg) dissolved in 30 μL of DMSO-acetone-water mixture) layered on top of the diet using a liquid handling system and then allowed to dry for several hours. Infested plates were then covered with a layer of sterile cotton batting and the plate lid, and then held in the dark at 29° C. Mortality was recorded at 6 days (d) post-treatment. Each plate had six replicates. The percent mortality was calculated from the average of the six replicates. In the case of the 128-well diet assay, three to five second instar BAW larvae were placed in each well (3 mL) of the diet tray that had been previously filled with 1 mL of artificial diet to which 50 ug/cm^2 of the test compound (dissolved in 50 μL of 90:10 acetone/water mixture) had been applied (to each of eight wells) and then allowed to dry. Trays were covered with a clear self-adhesive cover, and held at 25° C., 14:10 light:dark for six days. Percent mortality was recorded for the larvae in each well; activity in the eight wells was then averaged. In Table 2 under both the BAW HTS and the BAW 50 headings, an “A” means that the compound was tested and at least 50 percent mortality was observed whereas, “B” means that either (1) the compound was tested and less than 50 percent mortality was observed or (2) the compound was not tested.

The test system is the same in data set [2]. Nature of the data set: 96-well microtiter plate-based high throughput (HTS) bioassay on beet armyworm (BAW HTS). It is filed as in vivo. The conditions noted are these: 96-well plate; 12 μg test compound on 100 μL diet; BAW eggs; 29° C.; 6 days post-treatment; average of six replicates. As for the experimental part: as §1

On to `CO[C@@H]1[C@@H](OC)[C@H](C)O[C@@H](OC2Cc3ccc(-c4ccnc(-c5ccc(Cl)cc5)n4)cc3C2)[C@@H]1OC` (stereo partly drawn) [Compound 1C, 2-(4-Chlorophenyl)-4-[2-((2R,3R,4R,5S,6S)-3,4,5-trimethoxy-6-methyl-tetrahydropyran-2-yloxy)-indan-5-yl]-pyrimidine], for which the mortality at 50 µg/cm2 in data set [1] is more than 50%. The “BAW HTS (percent mortality)” value in data set [2] is “B (either (1) the compound was tested and less than 50 percent mortality was observed or (2) the compound was not tested)”.
Consider `CO[C@@H]1[C@@H](OC)[C@H](C)O[C@@H](OC2Cc3ccc(-c4ccnc(-c5ccc(Cl)cc5Cl)n4)cc3C2)[C@@H]1OC` (stereo partly drawn) [Compound 2C, 2-(2,4-Dichlorophenyl)-4-[2-((2R,3R,4R,5S,6S)-3,4,5-trimethoxy-6-methyl-tetrahydropyran-2-yloxy)-indan-5-yl]-pyrimidine], for which, in data set [1], the mortality at 50 µg/cm2 was less than 50%. Besides, the “BAW HTS (percent mortality)” value in data set [2] is “A (the compound was tested and at least 50 percent mortality was observed)”.
Take `CO[C@@H]1[C@@H](OC)[C@H](C)O[C@@H](OC2Cc3ccc(-c4ccnc(-c5cccc(C(F)(F)F)c5)n4)cc3C2)[C@@H]1OC` (stereo partly drawn) [Compound 3C, 2-(3-Trifluoromethylphenyl)-4-[2-((2R,3R,4R,5S,6S)-3,4,5-trimethoxy-6-methyl-tetrahydropyran-2-yloxy)-indan-5-yl]-pyrimidine]: the mortality at 50 µg/cm2 in data set [1] is more than 50%. Also, the “BAW HTS (percent mortality)” value in data set [2] was “B (either (1) the compound was tested and less than 50 percent mortality was observed or (2) the compound was not tested)”.
Regarding `CO[C@@H]1[C@@H](OC)[C@H](C)O[C@@H](OC2Cc3ccc(-c4ccnc(-c5ccc(C(F)(F)F)cc5)n4)cc3C2)[C@@H]1OC` (stereo partly drawn) [Compound 4C, 2-(4-Trifluoromethylphenyl)-4-[2-((2R,3R,4R,5S,6S)-3,4,5-trimethoxy-6-methyl-tetrahydropyran-2-yloxy)-indan-5-yl]-pyrimidine], the mortality at 50 µg/cm2 in data set [1] is more than 50%. Further, the “BAW HTS (percent mortality)” value in data set [2] was “B (either (1) the compound was tested and less than 50 percent mortality was observed or (2) the compound was not tested)”.
Turning to `COc1ccc(-c2nccc(-c3ccc4c(c3)CC(O[C@@H]3O[C@@H](C)[C@H](OC)[C@@H](OC)[C@H]3OC)C4)n2)cc1` (stereo partly drawn) [Compound 5C, 2-(4-methoxyphenyl)-4-[2-((2R,3R,4R,5S,6S)-3,4,5-trimethoxy-6-methyl-tetrahydropyran-2-yloxy)-indan-5-yl]-pyrimidine], the mortality at 50 µg/cm2 in data set [1] was more than 50%. In addition, the “BAW HTS (percent mortality)” value in data set [2] was “A (the compound was tested and at least 50 percent mortality was observed)”.
On to `CO[C@@H]1[C@@H](OC)[C@H](C)O[C@@H](OC2Cc3ccc(-c4ccnc(-c5cccnc5)n4)cc3C2)[C@@H]1OC` (stereo partly drawn) [Compound 6C, 2-Pyridin-3-yl-4-[2-((2R,3R,4R,5S,6S)-3,4,5-trimethoxy-6-methyl-tetrahydropyran-2-yloxy)-indan-5-yl]-pyrimidine], for which the mortality at 50 µg/cm2 in data set [1] was less than 50%. Moreover, the “BAW HTS (percent mortality)” value in data set [2] is “B (either (1) the compound was tested and less than 50 percent mortality was observed or (2) the compound was not tested)”.
As for `CO[C@@H]1[C@@H](OC)[C@H](C)O[C@@H](OC2Cc3ccc(-c4ccnc(-c5ccccc5)n4)cc3C2)[C@@H]1OC` (stereo partly drawn) [Compound 7C, 2-Phenyl-4-[2-((2R,3R,4R,5S,6S)-3,4,5-trimethoxy-6-methyl-tetrahydropyran-2-yloxy)-indan-5-yl]-pyrimidine], the mortality at 50 µg/cm2 in data set [1] is less than 50%. The “BAW HTS (percent mortality)” value in data set [2] was “B (either (1) the compound was tested and less than 50 percent mortality was observed or (2) the compound was not tested)”.
`CO[C@@H]1[C@@H](OC)[C@H](C)O[C@@H](OC2Cc3ccc(-c4ccn(-c5ccc(C(F)(F)F)cn5)n4)cc3C2)[C@@H]1OC` (stereo partly drawn) [Compound 8C, 5-trifluoromethyl-2-{3-[2-((2R,3R,4R,5S,6S)-3,4,5-trimethoxy-6-methyl-tetrahydropyran-2-yloxy)-indan-5-yl]-pyrazol-1-yl}-pyridine]: in data set [1], the mortality at 50 µg/cm2 is more than 50%. Besides, the “BAW HTS (percent mortality)” value in data set [2] is “A (the compound was tested and at least 50 percent mortality was observed)”.
With `CO[C@@H]1[C@@H](OC)[C@H](C)O[C@@H](OC2Cc3ccc(-c4ccn(-c5nnc(C(F)(F)F)s5)n4)cc3C2)[C@@H]1OC` (stereo partly drawn) [Compound 9C, 2-trifluoromethyl-5-{3-[2-((2R,3R,4R,5S,6S)-3,4,5-trimethoxy-6-methyl-tetrahydropyran-2-yloxy)-indan-5-yl]-pyrazol-1-yl}-[1,3,4]thiadiazole], the mortality at 50 µg/cm2 in data set [1] was more than 50%. Also, the “BAW HTS (percent mortality)” value in data set [2] is “A (the compound was tested and at least 50 percent mortality was observed)”.
In the case of `CO[C@@H]1[C@@H](OC)[C@H](C)O[C@@H](OC2Cc3ccc(-c4ccn(-c5ccc(OC(F)(F)C(F)(F)F)cc5)n4)cc3C2)[C@@H]1OC` (some centres unmarked) [Compound 10C], the mortality at 50 µg/cm2 in data set [1] was more than 50%. Further, in data set [2], the “BAW HTS (percent mortality)” value is “A (the compound was tested and at least 50 percent mortality was observed)”.
